This is an account of results in patent publication US6815446B1, “Selective antagonists of A2B adenosine receptors” (Vanderbilt University, priority 1999, dated 2004).

Like-named read-outs stand apart in the source and are kept apart here. Bounds are passed on as bounds.

The target in experiment [1] is T1, A2B Receptor (Homo sapiens, UniProt P29275).
T1 sequence (P29275 1-332): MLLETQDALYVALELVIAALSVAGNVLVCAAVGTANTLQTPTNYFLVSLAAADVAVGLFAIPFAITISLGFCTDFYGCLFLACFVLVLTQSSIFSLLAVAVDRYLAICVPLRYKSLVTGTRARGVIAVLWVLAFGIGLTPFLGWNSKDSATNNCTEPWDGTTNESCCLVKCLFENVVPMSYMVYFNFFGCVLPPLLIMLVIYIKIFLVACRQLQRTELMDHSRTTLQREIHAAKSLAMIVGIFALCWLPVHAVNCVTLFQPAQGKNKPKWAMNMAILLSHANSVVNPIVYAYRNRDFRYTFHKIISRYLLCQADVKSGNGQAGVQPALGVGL
The experiment can be described thus: Inhibition of NECA-stimulated cAMP in HEL (human erythroleukemia) cells, Schild analysis. The experiment is classed as cell-based. More on the design: endogenous in cells; host or cells: human erythroleukemia (HEL) cells. Conditions: for Schild analysis, type of antagonism at A2B receptors: NECA cAMP dose-response curves in human erythroleukemia cells with increasing antagonist concentrations, FIG. 1; for Kb: human (h), NECA-stimulated cAMP in HEL cells, read-out: Antagonist potency (K1 or KB) A2B Receptor. An excerpt:
A Schild analysis derived from dose-response curves for accumulation of cAMP produced by NECA in human erythroleukemia cells in the absence and in the presence of increasing concentrations of the antagonists. […] The intercept at the x-axis is an estimate of the Ki of the antagonists.

Another experiment has as its target T2, A1 Receptor (Rattus norvegicus, UniProt P25099).
T2 sequence (P25099 1-326): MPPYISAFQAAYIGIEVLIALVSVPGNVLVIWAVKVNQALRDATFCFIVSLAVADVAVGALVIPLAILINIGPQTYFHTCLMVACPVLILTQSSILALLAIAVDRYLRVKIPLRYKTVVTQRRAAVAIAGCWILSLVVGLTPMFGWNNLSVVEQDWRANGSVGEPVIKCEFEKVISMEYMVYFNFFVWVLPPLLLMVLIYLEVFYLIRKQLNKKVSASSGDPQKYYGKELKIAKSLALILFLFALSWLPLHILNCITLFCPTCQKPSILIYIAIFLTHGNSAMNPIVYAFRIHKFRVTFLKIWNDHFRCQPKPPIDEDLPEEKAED
The settings on record: read-out: Antagonist potency (K1 or KB) A1 Receptor; rat (r); [3H]PIA, rat brain membranes; cited from earlier work.

The target in experiment [2] is A2A Receptor (Rattus norvegicus, UniProt P30543). Conditions: read-out: Antagonist potency (K1 or KB) A2A Receptor; rat (r); CGS 21680 radioligand, rat striatal membranes; cited from earlier work.
The target in experiment [3] is T1, A2B Receptor. Conditions: background statement; cited from earlier work.
A further experiment concerns the target T3, rat A3 (Rattus norvegicus, UniProt P28647).
T3 construct: expressed in transfected cells
T3 sequence (P28647 1-320): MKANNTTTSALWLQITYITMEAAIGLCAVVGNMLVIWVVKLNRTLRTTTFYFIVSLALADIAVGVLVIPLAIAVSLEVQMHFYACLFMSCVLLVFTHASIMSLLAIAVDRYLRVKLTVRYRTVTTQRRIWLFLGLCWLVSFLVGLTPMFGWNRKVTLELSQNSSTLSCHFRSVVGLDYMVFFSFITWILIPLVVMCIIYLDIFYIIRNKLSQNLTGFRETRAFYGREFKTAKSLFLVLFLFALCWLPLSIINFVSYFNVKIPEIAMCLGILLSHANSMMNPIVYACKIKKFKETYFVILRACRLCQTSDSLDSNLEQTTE
The settings on record: rat (r); [125I]APNEA, CHO cells transfected with rat A3; read-out: Antagonist potency (K1 or KB) A3 Receptor; cited from earlier work.

For experiment [4], the target named is T4, human A1 (Homo sapiens, UniProt P30542).
T4 construct: expressed in transfected cells
T4 sequence (P30542 1-326): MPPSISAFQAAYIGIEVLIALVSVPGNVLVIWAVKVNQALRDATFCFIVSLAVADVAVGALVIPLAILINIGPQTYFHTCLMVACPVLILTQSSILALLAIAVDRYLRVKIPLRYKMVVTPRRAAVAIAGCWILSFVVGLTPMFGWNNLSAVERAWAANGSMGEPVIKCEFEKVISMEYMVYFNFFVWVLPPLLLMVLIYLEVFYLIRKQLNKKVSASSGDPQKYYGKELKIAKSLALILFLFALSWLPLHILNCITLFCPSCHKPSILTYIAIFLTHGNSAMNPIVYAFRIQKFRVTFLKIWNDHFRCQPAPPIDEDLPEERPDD
The settings on record: human (h); [3H]DPCPX, HEK-293 cells transfected with human A1; read-out: Antagonist potency (K1 or KB) A1 Receptor; cited from earlier work.

Experiment [5] deals with T5, A2A Receptor (Homo sapiens, UniProt P29274).
T5 construct: endogenous in cells; host or cells: HMC-1 cells
The experiment can be described thus: Inhibition of CGS 21680-stimulated cAMP in HMC-1 cells. The experiment is classed as cell-based. Conditions: human (h), read-out: Antagonist potency (K1 or KB) A2A Receptor.

Another experiment deals with T6, human A3 (Homo sapiens, UniProt P0DMS8).
T6 construct: expressed in transfected cells
T6 sequence (P0DMS8 1-318): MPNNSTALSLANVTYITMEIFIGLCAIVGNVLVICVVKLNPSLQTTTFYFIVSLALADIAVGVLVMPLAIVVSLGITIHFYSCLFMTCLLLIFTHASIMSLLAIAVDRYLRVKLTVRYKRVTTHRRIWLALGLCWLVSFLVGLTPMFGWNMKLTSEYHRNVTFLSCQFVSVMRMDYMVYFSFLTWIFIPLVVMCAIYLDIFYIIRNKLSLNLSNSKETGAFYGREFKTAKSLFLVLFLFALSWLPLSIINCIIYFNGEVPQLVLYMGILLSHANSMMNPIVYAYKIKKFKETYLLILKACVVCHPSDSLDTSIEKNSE
Nature of the experiment: Displacement of [3H]NECA from CHO cells transfected with human A3. Type of experiment: binding. Conditions: read-out: Antagonist potency (K1 or KB) A3 Receptor. Background: In a radioligand displacement assay an active substance lowers the binding of a labelled ligand.

For experiment [6], the target named is T4, human A1. The experiment can be described thus: Displacement of [3H]DPCPX from membranes of CHO cells transfected with human A1. Type of experiment: binding. The settings on record: read-out: Antagonist potency (K1 or KB) A1 Receptor.

Sequence of A2A Receptor (Rattus norvegicus, UniProt P30543) (P30543 whole entry): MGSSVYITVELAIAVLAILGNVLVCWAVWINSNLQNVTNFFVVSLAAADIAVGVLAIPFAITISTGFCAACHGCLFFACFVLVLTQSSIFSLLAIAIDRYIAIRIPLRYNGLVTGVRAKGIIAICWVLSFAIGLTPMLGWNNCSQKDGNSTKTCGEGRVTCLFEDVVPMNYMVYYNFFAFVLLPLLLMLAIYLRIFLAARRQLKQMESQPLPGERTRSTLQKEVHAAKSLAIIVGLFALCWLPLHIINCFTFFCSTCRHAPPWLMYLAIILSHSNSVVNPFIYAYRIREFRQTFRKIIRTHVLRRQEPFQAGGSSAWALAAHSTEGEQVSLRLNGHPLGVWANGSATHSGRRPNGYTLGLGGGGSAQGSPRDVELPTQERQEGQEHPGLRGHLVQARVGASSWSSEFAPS
T5 sequence (P29274 whole entry): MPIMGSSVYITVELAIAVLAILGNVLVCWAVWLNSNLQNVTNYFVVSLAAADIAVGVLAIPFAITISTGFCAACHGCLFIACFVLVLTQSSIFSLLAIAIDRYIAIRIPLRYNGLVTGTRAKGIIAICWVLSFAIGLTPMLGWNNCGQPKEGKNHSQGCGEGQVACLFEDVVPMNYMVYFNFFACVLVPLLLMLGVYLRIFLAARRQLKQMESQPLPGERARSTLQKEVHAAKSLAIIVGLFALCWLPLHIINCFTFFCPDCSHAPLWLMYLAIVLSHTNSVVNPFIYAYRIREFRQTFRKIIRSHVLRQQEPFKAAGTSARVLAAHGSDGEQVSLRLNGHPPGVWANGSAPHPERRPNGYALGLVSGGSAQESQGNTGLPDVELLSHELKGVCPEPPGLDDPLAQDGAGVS

As usually defined, the Kb is the affinity of an antagonist, worked out from how it opposes an agonist. In the case of `CCCn1c(=O)c2[nH]c(-c3ccc(S(=O)(=O)O)cc3)nc2n(CCC)c1=O` [DPSPX, 1,3-dipropyl-8-p-sulfophenylxanthine], the “Schild analysis, type of antagonism at A2B receptors” value (“Schild analysis, type of antagonism” for short) at A2B Receptor [1] was “competitive antagonism”. For the same compound, the antagonist dissociation constant (Kb) at A2B Receptor [1] was 0.14 µM; on A1 Receptor it was 0.14 µM; at A2A Receptor [2] it was 0.79 µM; at rat A3, over 100 µM. The “Affinity of xanthine antagonists at A2B receptors” value at A2B Receptor [3] was “mid to high nM range”.

Regarding `CCCn1c(=O)[nH]c(=O)c2nc[nH]c21` [Enprofylline], the “Schild analysis, type of antagonism” value on A2B Receptor [1] is listed as “competitive antagonism”. Further, the antagonist dissociation constant (Kb) on human A1 [4] is 156 µM.

Turning to `CC(C)Cn1c(=O)[nH]c(=O)c2[nH]c(N3CCCC3)nc21` [Formula (I)], the Kb is 20 µM on A2A Receptor [5], 0.525 µM on A2B Receptor [1], 53 µM at human A3 and 31 µM at human A1 [6]. Also, the “Schild analysis, type of antagonism” value on A2B Receptor [1] is given as “competitive antagonism”. Also, the “Potency compared with enprofylline” value on A2B Receptor [1] (comparison from the potency table) was “much higher than that of enprofylline”.

For `CCNC(=O)[C@H]1O[C@@H](n2cnc3c(NCc4ccccc4)ncnc32)[C@@H](O)C1O` (stereo partly shown) [N^6-benzyl NECA], the “Agonist activity or affinity at A2B receptors” value on A2B Receptor [3] is “very low affinity”.

With `Cn1c(=O)c2[nH]cnc2n(C)c1=O` [Theophylline], on rat A3, the Kb was over 100 µM.
